Columns and labels:
Helicobacter pylori = assay: Activity against Helicobacter pylori, agar method of Iwahi et al. (MIC 50); type: cell-based; conditions: Helicobacter pylori, 96 h; Columbia agar (Oxoid), growth period of 4 days; approximate values; read-out: Appr. MIC 50
Text: The compounds of the formula I were investigated with respect to their activity against Helicobacter pylori following the method described by Tomoyuki Iwahi et al. (Antimicrobial Agents and Chemotherapy, 1991, 490-496) using Columbia agar (Oxoid) and a growth period of 4 days.

MIC50 (Helicobacter pylori) [µg/mL]	melting point [°C]	Compound
≤ 0.1	116 to 118	Cc1nc(C)c(Cl)c(NCc2nccc(OCCCCSCCO)c2C)n1 [Compound 36, 2-(4-{2-[(5-Chloro-2,6-dimethyl-pyrimidin-4-ylamino)-methyl]-3-methyl-pyridin-4-yloxy}-butylsulfanyl)-ethanol]
≤ 0.1	174 to 180	Cc1nc(C)c(Cl)c(NCc2nccc(SCCCSc3sccc3[N+](=O)[O-])c2C)n1 [Compound 40, (5-Chloro-2,6-dimethyl-pyrimidin-4-yl)-{3-methyl-4-[3-(3-nitro-thiophen-2-ylsulfanyl)-propylsulfanyl]-pyridin-2-ylmethyl}-amine]
≤ 0.1	100 to 101	Cc1nc(C)c(Cl)c(NCc2nccc(SCCCSCc3ccccn3)c2C)n1 [Compound 48, (5-Chloro-2,6-dimethyl-pyrimidin-4-yl)-{3-methyl-4-[3-(pyridin-2-ylmethylsulfanyl)-propylsulfanyl]-pyridin-2-ylmethyl}-amine]
≤ 0.1	159 to 160	Cc1nc(C)c(Cl)c(NCc2nccc(SCc3ccco3)c2C)n1 [Compound 60, (5-Chloro-2,6-dimethyl-pyrimidin-4-yl)-[4-(furan-2-ylmethylsulfanyl)-3-methyl-pyridin-2-ylmethyl]-amine]
≤ 0.1	123 to 126	Cc1nc(C)c(Cl)c(NCc2nccc(SCCCN3CCN(CC4CN(Cc5ccncc5)C(=O)O4)CC3)c2C)n1 (stereo not shown) [Compound 38, 5-[4-(3-{2-[(5-Chloro-2,6-dimethyl-pyrimidin-4-ylamino)-methyl]-3-methyl-pyridin-4-ylsulfanyl}-propyl)-piperazin-1-ylmethyl]-3-pyridin-4-ylmethyl-oxazolidin-2-one]
≤ 0.1	129 to 130	Cc1c(OCCSCc2ccco2)ccnc1CNc1ncncc1Cl [Compound 58, (5-Chloro-pyrimidin-4-yl)-{4-[2-(furan-2-ylmethylsulfanyl)-ethoxy]-3-methyl-pyridin-2-ylmethyl}-amine]
≤ 0.1	119 to 121	Cc1c(SCCCSCCn2c([N+](=O)[O-])cnc2C)ccnc1CNc1ncncc1Cl [Compound 9, (5-Chloropyrimidin-4-yl)-(3-methyl-4-{3-[2-(2-methyl-5-nitroimidazol-1-yl)ethylsulfanyl]propylsulfanyl}-pyridin-2-ylmethyl)amine]
≤ 0.1	68 to 71	Cc1nc(C)c(Cl)c(NCc2nccc(SCCOCCSCc3ccncc3)c2C)n1 [Compound 42, (5-Chloro-2,6-dimethyl-pyrimidin-4-yl)-(3-methyl-4-{2-[2-(pyridin-4-ylmethylsulfanyl)-ethoxy]-ethylsulfanyl}-pyridin-2-ylmethyl)-amine]
≤ 0.1	119 to 121	Cc1c(OCCSCc2ccncc2)ccnc1CNc1ncncc1Cl [Compound 54, (5-Chloro-pyrimidin-4-yl)-{3-methyl-4-[2-(pyridin-4-ylmethylsulfanyl)-ethoxy)-pyridine-2-ylmethyl}-amine]
≤ 0.1	103 to 105	Cc1nc(C)c(Cl)c(NCc2nccc(OCCOCCSCc3ccncc3)c2C)n1 [Compound 29, (5-Chloro-2,6-dimethyl-pyrimidin-4-yl)-(3-methyl-4-{2-[2-(pyridin-4-ylmethylsulfanyl)-ethoxy]-ethoxy}-pyridin-2-ylmethyl)-amine]
≤ 0.1	104 to 106	Cc1nc(C)c(Cl)c(NCc2nccc(SCCCCSCc3ccncc3)c2C)n1 [Compound 20, (5-Chloro-2,6-dimethylpyrimidin-4-yl)-{3-methyl-4-[4-(pyridin-4-ylmethylsulfanyl)butylsulfanyl]pyridin-2-ylmethyl}amine]

— patent US6395732B1, “Pyrimidin-aminomethyl-pyridine derivatives, their preparation and their use in the control of helicobacter bacteria” (BYK Gulden Lomberg Chemische Fabrik GmbH, priority 1998, dated 2002)
